Measurements: EP0877020A1, “ACRIDONE DERIVATIVE” (Eisai Co., Ltd., priority 1995, dated 1997)
Like-named read-outs stand apart in the source and are kept apart here. Blank lines part the entries; values can stand above or below the compound they belong to.

Assays:
[1] = system: RBL-2H3 cells; assay: Repression of liberation of mediators (serotonin, histamine, arachidonic acid) from RBL-2H3 cells; type: cell-based, rat
From the text: [Study on activity to repress the liberation of various mediators from rat basophilic leukemic cell strain (RBL-2H3) and activity to repress thyrosine kinase]
The cells of RBL-2H3, one species of rat cell line, carry out not only the liberation of histamine and serotonin but also the formation and liberation of prostaglandins, TNFα, etc., i.e. inflammatory mediators, owing to the specific antigen of the IgE antibody bound to the IgE receptor. In the present test system, therefore, the cells were marked with serotonin and arachidonic acid labeled in advance with [^3H] and cultured in the presence of a compound under test and in the absence thereof and the amounts of the mediators liberated in the culture medium were measured. Thus, the given compounds were tested for activity to repress the liberation of various mediators. The TNFα was determined by means of bioassay.

[2] = system: TNFα; assay: Repression of formation and liberation of TNFα (bioassay); type: cell-based, rat; settings: at the same concentration (12 µM)
[3] = system: phospholipase C; assay: Repression of activation of phospholipase C, intracellular substrate of the thyrosine kinase; type: cell-based; settings: at the same concentration (12 µM)
[4] = system: Jurkat cells (T-cells); assay: Thyrosine kinase selectivity in Jurkat cells (antigenic stimulus); type: cell-based
[5] = Rattus norvegicus, RBL-2H3 cells, [3H]-labelled serotonin, read-out: IC50 (µM) in liberation of serotonin from RBL-2H3 cells

Compound: 3,4-Dimethyl-10-[3-(2-imidazoylmethyl)aminopropyl]-9 acridone [Example 32]
IC50 ([1]; RBL-2H3 cells, [3H]-labelled serotonin, read-out: IC50 (µM) in liberation of serotonin from RBL-2H3 cells): 0.6 µM

IC50 [1, 5]: 1.7 µM
Compound: Cc1c(F)cc2c(=O)c3ccccc3n(CCCN)c2c1C [Example 1, 2-Fluoro-3,4-dimethyl-10-(3-aminopropyl)-9-acridone]

Compound: Cc1ccc2c(=O)c3ccccc3n(CCCN)c2c1C [Example 2, 3,4-Dimethyl-10-(3-aminopropyl)-9-acridone]
IC50 ([1]; Rattus norvegicus, RBL-2H3, RBL-2H3 cells, [3H]-labelled serotonin, read-out: IC50 (µM) in liberation of serotonin from RBL-2H3 cells): 6 µM

Compound: Cc1ccc2c(=O)c3ccccc3n(CCCN)c2c1C.O=C(O)C(=O)O [Example 3, 3,4-Dimethyl-10-(3-aminopropyl)-9-acridone oxalate]
formation and liberation of TNFα [2]: repressed | activation of phospholipase C [3]: repressed | activity to repress the antigenic stimulus in the Jurkat cells ([4]; Jurkat cells): absolutely no activity | activity to repress such thyrosine kinases as p561ck and fyn ([4]; concluded from the Jurkat cell test): no activity | IC50 ([1]; Rattus norvegicus, RBL-2H3, due to the antigenic stimulus, read-out: IC50 value, liberation of arachidonic acid from the RBL-2H3 cells): 12 µM | IC50 ([1]; Rattus norvegicus, RBL-2H3, due to the antigenic stimulus, read-out: IC50 value, liberation of histamine from the RBL-2H3 cells): 12 µM | IC50 ([1]; Rattus norvegicus, RBL-2H3, due to the antigenic stimulus, read-out: IC50 value, liberation of serotonin from the RBL-2H3 cells): 12 µM

IC50 [1, 5]: 3 µM
Compound: Cc1ccc2c(=O)c3ccccc3n(CCCNCc3ccccc3)c2c1C [Example 19, 3,4-Dimethyl-10-(3-benzylaminopropyl)-9-acridone]
